According to patent publication US10383859B2, “Benzo[d]thiazole derivative or salt thereof, and pharmaceutical composition including same” (Yuhan Corporation, priority 2016, dated 2019):

These molecules were tested on A549 cells (assay: Cell migration assay (24-well transwell, laminin)). Conditions: Homo sapiens, A549, 6 h, laminin 10 μg/mL in lower well, test compounds 0.39˜100 μM, migrated cells counted, read-out: Inhibitory activity against cell migration.
Type: cell-based, human
Protocol: Cell migration was measured with a 24-well transwell having a polycarbonate membrane (8.0 μm pore size, Costar) at the bottom of the upper chamber. Each lower well was treated with laminin (10 μg/mL) and test compounds in predetermined concentrations (0.39˜100 μM) along with a serum-free RPMI1640 medium. A549 cells (Korean Cell Line Bank) were suspended in a serum-free RPMI1640 medium at a concentration of 1×10^6 cells/mL and then the test compounds were added thereto at the indicated concentrations. Each resulting solution (100 μL) was added to the upper chamber. The cells were cultured at 37° C. for 6 hours in a CO2 incubator. The upper chamber was taken out and then the cells were fixed with PBS containing 70% methyl alcohol for 10 minutes, followed by washing with PBS twice. The cells were stained with hematoxylin (Sigma) for 10 minutes and then washed with distilled water. The non-migrated cells were removed from the upper portion of the polycarbonate membrane with a cotton swab. The membranes were excised and separated from the chamber, and then mounted to a slide using a gel mount reagent (Biomeda, USA). The migrated cells (attached to the lower face of the membrane) were counted at three randomly selected sites under a microscope (×20). The cell counting was performed with the Image J program. From the counted cell numbers, each IC50 value was calculated by non-linear regression curve fit using the “GraphPad Prism” program.
The cells are pulled by laminin residing in the lower chamber and then passed through the polycarbonate membrane, so as to attach to the lower face of the membrane.

| SMILES | IC50 [µM] |
| --- | --- |
| COc1ccc(CCN(c2nc3cc(F)cc(F)c3s2)C(C)c2ccc(C(=O)O)cc2)cc1F (stereo not shown) [Example 122, 4-(1-{(5,7-difluorobenzo[d]thiazol-2-yl)[2-(3-fluoro-4-methoxyphenyl)ethyl]amino}ethyl)benzoic acid] | < 1 |
| CCC(c1ccc(C(=O)O)cc1)N(CCc1c(F)cc(OC)cc1F)c1nc2cccc(F)c2s1 (stereo not shown) [Example 75, 4-(1-{[2-(2,6-difluoro-4-methoxyphenyl)ethyl](7-fluorobenzo[d]thiazol-2-yl)amino}propyl)benzoic acid] | > 10 |
| CC(c1ccc(C(=O)O)cc1)N(CCc1cc(F)c(F)c(F)c1)c1nc2cccc(F)c2s1 (stereo not shown) [Example 58, 4-(1-{(7-fluorobenzo[d]thiazol-2-yl)[2-(3,4,5-trifluorophenyl)ethyl]amino}ethyl)benzoic acid] | > 10 |
| COc1cc(C)c(CCN(c2nc3cccc(F)c3s2)C(C)c2ccc(C(=O)O)cc2)cc1C(C)C (stereo not shown) [Example 62, 4-{1-[(7-fluorobenzo[d]thiazol-2-yl){2-[4-methoxy-2-methyl-5-(propan-2-yl)phenyl]ethyl}amino]ethyl}benzoic acid] | > 10 |
| COc1ccc(CCN(c2nc3cc(F)ccc3s2)C(C)c2ccc(C(=O)O)cc2)cc1 (stereo not shown) [Example 113, 4-(1-{(5-fluorobenzo[d]thiazol-2-yl)[2-(4-methoxyphenyl)ethyl]amino}ethyl)benzoic acid] | > 10 |
| COc1ccc(CCN(c2nc3cccc(F)c3s2)C(C)c2ccc(C(=O)O)cc2)cc1Br (stereo not shown) [Example 55, 4-(1-{[2-(3-bromo-4-methoxyphenyl)ethyl](7-fluorobenzo[d]thiazol-2-yl)amino}ethyl)benzoic acid] | > 10 |
| COc1ccc(CCN(c2nc3cccc(F)c3s2)C(C)c2ccc(C(=O)O)cc2)cc1F (stereo not shown) [Example 54, 4-(1-{(7-fluorobenzo[d]thiazol-2-yl)[2-(3-fluoro-4-methoxyphenyl)ethyl]amino}ethyl)benzoic acid] | > 10 |
| COc1cc(C)c(CCN(Cc2ccc(C(=O)O)cc2)c2nc3cccc(F)c3s2)cc1C(C)C [Example 44, 4-{[(7-fluorobenzo[d]thiazol-2-yl){2-[4-methoxy-2-methyl-5-(propan-2-yl)phenyl]ethyl}amino]methyl}benzoic acid] | > 10 |
| CCC(c1ccc(C(=O)O)cc1)N(CCc1cc(C)c(OC)cc1C)c1nc2cccc(F)c2s1 (stereo not shown) [Example 72, 4-(1-{(7-fluorobenzo[d]thiazol-2-yl)[2-(4-methoxy-2,5-dimethylphenyl)ethyl]amino}propyl)benzoic acid] | > 10 |
| COc1ccc(CCN(c2nc3cccc(C(F)(F)F)c3s2)C(C)c2ccc(C(=O)O)cc2)cc1 (stereo not shown) [Example 106, 4-(1-{[2-(4-methoxyphenyl)ethyl][7-(trifluoromethyl)-benzo[d]thiazol-2-yl]amino}ethyl)benzoic acid] | > 10 |
| COc1ccc(CCN(c2nc3cc(F)c(F)c(F)c3s2)C(C)c2ccc(C(=O)O)cc2)cc1 (stereo not shown) [Example 101, 4-(1-{[2-(4-methoxyphenyl)ethyl](5,6,7-trifluorobenzo[d]thiazol-2-yl)amino}ethyl)benzoic acid] | > 10 |
| CCC(c1ccc(C(=O)O)cc1)N(CCc1ccc(OC)cc1Cl)c1nc2cccc(F)c2s1 (stereo not shown) [Example 70, 4-(1-{[2-(2-chloro-4-methoxyphenyl)ethyl](7-fluorobenzo[d]thiazol-2-yl)amino}propyl)benzoic acid] | > 10 |
| CCC(c1ccc(C(=O)O)cc1)N(CCc1cc(F)c(OC)cc1F)c1nc2cccc(F)c2s1 (stereo not shown) [Example 69, 4-(1-{[2-(2,5-difluoro-4-methoxyphenyl)ethyl](7-fluorobenzo[d]thiazol-2-yl)amino}propyl)benzoic acid] | > 10 |
| CC(c1ccc(C(=O)O)cc1)N(CCc1ccc(F)cc1F)c1nc2cccc(F)c2s1 (stereo not shown) [Example 56, 4-(1-{[2-(2,4-difluorophenyl)ethyl](7-fluorobenzo[d]thiazol-2-yl)amino}ethyl)benzoic acid] | > 10 |
| COc1ccc(CCN(c2nc3cc(C)ccc3s2)C(C)c2ccc(C(=O)O)cc2)cc1 (stereo not shown) [Example 112, 4-(1-{[2-(4-methoxyphenyl)ethyl](5-methyl-benzo[d]thiazol-2-yl)amino}ethyl)benzoic acid] | > 10 |
| COc1ccc(CCN(c2nc3ccc(C)c(F)c3s2)C(C)c2ccc(C(=O)O)cc2)cc1 (stereo not shown) [Example 105, 4-(1-{(7-fluoro-6-methyl-benzo[d]thiazol-2-yl)[2-(4-methoxyphenyl)ethyl]amino}ethyl)benzoic acid] | > 10 |

The next lines start with the values.

| IC50 [µM] | SMILES |
| --- | --- |
| < 1 | CCc1ccc(CCN(Cc2ccc(C(=O)O)cc2)c2nc3cccc(F)c3s2)cc1 [Example 32, 4-({[2-(4-ethylphenyl)ethyl](7-fluorobenzo[d]thiazol-2-yl)amino}methyl)benzoic acid] |
| < 1 | COc1cc(F)c(CCN(Cc2ccc(C(=O)O)cc2)c2nc3cccc(F)c3s2)c(F)c1 [Example 51, 4-({[2-(2,6-difluoro-4-methoxyphenyl)ethyl](7-fluorobenzo[d]thiazol-2-yl)amino}methyl)benzoic acid] |
| > 10 | COc1ccc(CCN(Cc2ccc(C(=O)O)cc2)c2nc3cccc(C)c3s2)cc1 [Example 96, 4-({[2-(4-methoxyphenyl)ethyl](7-methyl-benzo[d]thiazol-2-yl)amino}methyl)benzoic acid] |
| < 1 | CCOc1ccc(CCN(Cc2ccc(C(=O)O)cc2)c2nc3cccc(F)c3s2)cc1 [Example 9, 4-{[[2-(4-ethoxyphenyl)ethyl](7-fluorobenzo[d]thiazol-2-yl)amino]methyl}benzoic acid] |
| < 1 | COc1ccc(CCN(Cc2ccc(C(=O)O)cc2)c2nc3cccc(N)c3s2)cc1 [Example 82, 4-({(7-amino-benzo[d]thiazol-2-yl)[2-(4-methoxyphenyl)ethyl]amino}methyl)benzoic acid] |
| > 10 | O=C(O)c1ccc(CN(CCc2cccc(F)c2F)c2nc3cccc(F)c3s2)cc1 [Example 34, 4-({[2-(2,3-difluorophenyl)ethyl](7-fluorobenzo[d]thiazol-2-yl)amino}methyl)benzoic acid] |
| < 1 | COc1ccc(CCN(Cc2ccc(C(=O)O)cc2)c2nc3cccc(F)c3s2)cc1C [Example 49, 4-({(7-fluorobenzo[d]thiazol-2-yl)[2-(4-methoxy-3-methylphenyl)ethyl]amino}methyl)benzoic acid] |
| < 1 | COc1ccc(CCN(Cc2ccc(C(=O)O)cc2)c2nc3cccc(F)c3s2)cc1F [Example 28, 4-({(7-fluorobenzo[d]thiazol-2-yl)[2-(3-fluoro-4-methoxyphenyl)ethyl]amino}methyl)benzoic acid] |
| < 1 | COc1ccc(CCN(Cc2ccc(C(=O)O)cc2)c2nc3ccc(C)c(F)c3s2)cc1 [Example 94, 4-({(7-fluoro-6-methyl-benzo[d]thiazol-2-yl)[2-(4-methoxyphenyl)ethyl]amino}methyl)benzoic acid] |
| < 1 | COc1ccc(CCN(Cc2ccc(C(=O)O)cc2)c2nc3cc(F)c(F)cc3s2)cc1 [Example 86, 4-({(5,6-difluorobenzo[d]thiazol-2-yl)[2-(4-methoxyphenyl)ethyl]amino}methyl)benzoic acid] |
| 1 to 10 | CCCOc1ccc(CCN(Cc2ccc(C(=O)O)cc2)c2nc3cccc(F)c3s2)cc1 [Example 10, 4-({(7-fluorobenzo[d]thiazol-2-yl)[2-(4-propoxyphenyl)ethyl]amino}methyl)benzoic acid] |
| < 1 | COc1ccc(CCN(Cc2ccc(C(=O)O)c(O)c2)c2nc3cccc(F)c3s2)cc1 [Example 77, 4-({(7-fluorobenzo[d]thiazol-2-yl)[2-(4-methoxyphenyl)ethyl]amino}methyl)-2-hydroxybenzoic acid] |
| > 10 | O=C(O)c1ccc(CN(CCc2cccc(F)c2)c2nc3cccc(F)c3s2)cc1 [Example 3, 4-({(7-fluorobenzo[d]thiazol-2-yl)[2-(3-fluorophenyl)ethyl]amino}methyl)benzoic acid] |
| < 1 | O=C(O)c1ccc(CN(CCc2ccc(OCC3CC3)cc2)c2nc3cccc(F)c3s2)cc1 [Example 19, 4-{[[2-(4-cyclopropylmethoxyphenyl)ethyl](7-fluorobenzo[d]thiazol-2-yl)amino]methyl}benzoic acid] |
| > 10 | COc1ccc(CCN(Cc2ccc(C(=O)O)cc2)c2nc3cccc(F)c3s2)cc1Br [Example 37, 4-({[2-(3-bromo-4-methoxyphenyl)ethyl](7-fluorobenzo[d]thiazol-2-yl)amino}methyl)benzoic acid] |
| > 10 | O=C(O)c1ccc(CN(CCc2ccc(F)cc2)c2nc3cccc(F)c3s2)cc1 [Example 8, 4-({(7-fluorobenzo[d]thiazol-2-yl)[2-(4-fluorophenyl)ethyl]amino}methyl)benzoic acid] |

Same assay, conditions: laminin 10 μg/mL in lower well, test compounds 0.39˜100 μM, 6 hours, migrated cells counted, read-out: Inhibitory activity against cell migration

| IC50 [µM] | SMILES |
| --- | --- |
| > 10 | COc1cccc(CCN(Cc2ccc(C(=O)O)cc2)c2nc3cccc(F)c3s2)c1 [Example 42, 4-({(7-fluorobenzo[d]thiazol-2-yl)[2-(3-methoxyphenyl)ethyl]amino}methyl)benzoic acid] |
| 1 to 10 | COc1cccc(CCN(Cc2ccc(C(=O)O)cc2)c2nc3cccc(F)c3s2)c1 [Example 7, 4-({(7-fluorobenzo[d]thiazol-2-yl)[2-(3-methoxyphenyl)ethyl]amino}methyl)benzoic acid] |
